{
  "source": "patent US11504362B2",
  "about": "“Liquid dosage forms to treat cancer” (Exelixis, Inc., priority 2017, dated 2022)",
  "key": {"[1]": {"test_system": "RET", "conditions": "administration to mice; Yakes, et al. 2011; cited from earlier work"}, "[2]": {"assay": "Safety evaluation (AEs, vital signs, ECG, laboratory tests) in Phase 1 mass balance study", "type": "in vivo, human", "method": "Safety: Safety evaluations included assessments of AEs, vital signs, electrocardiogram (ECG), laboratory tests, and concomitant medications. Adverse event seriousness, severity grade, and relationship to study treatment were assessed by the investigator. Severity grade was defined by the National Cancer Institute Common Terminology Criteria for Adverse Events (CTCAE) version 4.0.\nAdverse event terms were standardized using the Medical Dictionary for Regulatory Activities and tabulated by system organ class and preferred term."}, "[3]": {"conditions": "rodent and non-rodent models; cited from earlier work"}, "[4]": {"target": "VEGFR2 (Mus musculus, UniProt P35918)", "sequence (P35918 20-1345)": "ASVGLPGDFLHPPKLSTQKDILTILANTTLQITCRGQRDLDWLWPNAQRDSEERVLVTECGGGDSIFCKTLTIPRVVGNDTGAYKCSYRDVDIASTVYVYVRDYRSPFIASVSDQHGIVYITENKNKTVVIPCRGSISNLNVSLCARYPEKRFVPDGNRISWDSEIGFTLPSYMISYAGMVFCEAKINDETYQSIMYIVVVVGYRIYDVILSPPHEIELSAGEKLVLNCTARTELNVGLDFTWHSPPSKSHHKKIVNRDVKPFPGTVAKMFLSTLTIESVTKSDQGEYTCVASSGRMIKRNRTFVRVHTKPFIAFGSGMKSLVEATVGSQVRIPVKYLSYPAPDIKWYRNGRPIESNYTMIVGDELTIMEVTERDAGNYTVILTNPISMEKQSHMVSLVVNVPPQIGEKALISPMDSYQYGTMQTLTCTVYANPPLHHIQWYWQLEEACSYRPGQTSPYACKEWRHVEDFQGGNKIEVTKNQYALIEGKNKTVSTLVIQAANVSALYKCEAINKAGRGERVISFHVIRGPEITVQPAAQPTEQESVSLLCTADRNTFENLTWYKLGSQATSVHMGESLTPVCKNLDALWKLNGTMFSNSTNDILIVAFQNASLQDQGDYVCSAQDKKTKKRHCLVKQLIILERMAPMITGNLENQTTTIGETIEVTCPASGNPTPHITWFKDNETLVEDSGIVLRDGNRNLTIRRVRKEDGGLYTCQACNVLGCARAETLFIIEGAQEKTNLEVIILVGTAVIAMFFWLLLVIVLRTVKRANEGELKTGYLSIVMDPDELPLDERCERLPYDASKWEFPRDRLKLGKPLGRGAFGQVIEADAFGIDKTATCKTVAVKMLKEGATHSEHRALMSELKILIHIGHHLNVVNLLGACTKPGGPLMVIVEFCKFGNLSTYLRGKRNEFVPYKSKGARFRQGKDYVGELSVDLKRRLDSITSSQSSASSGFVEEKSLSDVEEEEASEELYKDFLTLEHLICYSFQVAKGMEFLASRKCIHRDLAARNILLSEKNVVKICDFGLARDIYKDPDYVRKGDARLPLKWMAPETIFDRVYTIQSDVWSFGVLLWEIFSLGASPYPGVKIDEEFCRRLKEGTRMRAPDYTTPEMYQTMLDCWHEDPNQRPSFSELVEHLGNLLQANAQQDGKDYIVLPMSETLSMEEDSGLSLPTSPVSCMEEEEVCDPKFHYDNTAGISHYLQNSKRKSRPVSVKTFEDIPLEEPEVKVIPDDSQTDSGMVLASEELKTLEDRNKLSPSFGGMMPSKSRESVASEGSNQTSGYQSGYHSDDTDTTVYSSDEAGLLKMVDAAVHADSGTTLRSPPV", "conditions": "administration to mice; Yakes, et al. 2011; cited from earlier work"}, "[5]": {"assay": "Percentage of 14C radioactivity associated with erythrocytes in whole blood (ETR)", "type": "in vivo, human", "conditions": "single 175 mg oral dose", "protocol": "To determine the percentage of radioactivity associated with erythrocytes in whole blood over time (ETR; calculated only for time points that whole blood is collected), the following was calculated:\nThe amount of ^14C radioactivity in plasma versus whole blood, adjusted for the hematocrit, at the specific time points of comparison (ETR=Xe/Xb=1−[Cp*(1−Hct)/Cb], where Xe and Xb stands for amount of radioactivity in erythrocyte or whole blood, respectively. Hematocrit values for Days-1, 2, and 4 were averaged for use in this calculation.\nBlood samples (4 mL) for whole blood analysis of total radioactivity were collected within 15 minutes pre-dose and at 1, 2, 4, 8, 14, 24, and 72 hours post-dose. […] Samples collected were used to determine the percentage of radioactivity associated with erythrocytes in whole blood over time (calculated only for time points that whole blood was collected).\nTo determine the percentage of radioactivity associated with erythrocytes in whole blood over time (calculated only for time points where whole blood was collected), the following was calculated: the amount of radioactivity in plasma versus whole blood, adjusted for the hematocrit, at the specific time points of comparison (ETR=Xe/Xb=1−[Cp*(1-Hct)/Cb], where Cp stands for amount of radioactivity in plasma and Cb stands for the amount of radioactivity in blood and Hct stands for hematocrit value. Hematocrit values for Days-1, 2, and 4 were averaged for use in this calculation."}, "[6]": {"assay": "Plasma pharmacokinetics of XL184 and metabolites by LC/MS/MS method", "conditions": "human, in vivo", "method": "Pharmacokinetics: Serial blood, urine, and feces were collected at specified times following dosing.\nAll samples collected for radioactivity analysis were analyzed for total radioactivity.\nDetailed reports of the bioanalytical methodologies and results accompany the clinical study report.\nThe other minor metabolite in plasma, p-Fluoroaniline, was analyzed by Exelixis using a validated LC/MS/MS method.\nPK variables were computed using WinNonlin Professional, version 5.2."}, "[7]": {"conditions": "po, 175 mg, Plasma concentration of XL184 by LC/MS/MS, single 175 mg oral XL184 L-malate, healthy male subjects, […], individual subject"}},
  "note": "Several values for one entry are separate records, joined by “and”; a condition that tells them apart may be missing. Identical values can stand only once. Entries after “also recorded” stand apart in the source; their conditions may differ.",
  "data": [
    {"smiles": "COc1cc2nccc(Oc3ccc(NC(=O)C4(C(=O)Nc5ccc(F)cc5)CC4)cc3)c2cc1OC", "note": "[XL184, N-(4-{[6,7-bis(methyloxy)quinolin-4-yl]oxy}phenyl)-N′-(4-fluorophenyl)cyclopropane-1,1-dicarboxamide]", "values": [
      {"measurement": "Inhibition of RET in vivo", "setting": "[1]", "result": "dose-dependent inhibition"},
      {"measurement": "Total number of TEAEs", "setting": "[2]; 8 subjects", "result": 36},
      {"measurement": "TEAEs resolved within 1 to 3 days", "setting": "[2]; 31/36", "result": 86, "unit": "%"},
      {"measurement": "Severity of one event of treatment related dizziness", "setting": "[2]; CTCAE version 4.0", "result": "moderate (CTCAE grade 2)"},
      {"measurement": "Severity of the majority of TEAEs", "setting": "[2]; CTCAE version 4.0", "result": "mild in severity (CTCAE grade 1)"},
      {"measurement": "Laboratory values", "setting": "[2]; changes from baseline", "result": "no clinically significant changes from baseline in any laboratory values; also recorded: no notable clinical laboratory findings"},
      {"measurement": "Subjects reporting TEAEs assessed as related to the study treatment", "setting": "[2]; five subjects", "result": 62.5, "unit": "%"},
      {"measurement": "Vital signs and ECG evaluations", "setting": "[2]; in vivo", "result": "No remarkable on study results were noted"},
      {"measurement": "Tolerability", "setting": "[2]; single 175 mg oral dose", "result": "well tolerated"},
      {"measurement": "Deaths, SAEs, discontinuations due to AEs, other significant AEs", "setting": "[2]; single 175 mg oral dose, 8 healthy male subjects", "result": "no deaths, other SAEs, discontinuations due to AEs, or other significant AEs"},
      {"measurement": "Subjects reporting TEAEs", "setting": "[2]; six of 8 subjects", "result": 75, "unit": "%"},
      {"measurement": "Subjects reporting flatulence", "setting": "[2]; three subjects", "result": 37.5, "unit": "%"},
      {"measurement": "Subjects reporting headache", "setting": "[2]; three subjects", "result": 37.5, "unit": "%"},
      {"measurement": "Vomiting after dosing", "setting": "[2]; within 4 hours of dosing", "result": "No subject vomited within 4 hours of dosing"},
      {"measurement": "Oral bioavailability", "setting": "[3]", "result": "orally bioavailable"},
      {"measurement": "Inhibition of VEGFR2 in vivo", "setting": "[4]", "result": "dose-dependent inhibition"},
      {"measurement": "Percentage of 14C Radioactivity Associated with Erythrocytes in Whole Blood (ETR)", "setting": "[5]; 1.00 h, Max (N=8)", "result": 14, "unit": "%"},
      {"measurement": "Percentage of 14C Radioactivity Associated with Erythrocytes in Whole Blood (ETR)", "setting": "[5]; 1.00 h, Mean (N=8)", "result": 7.08, "unit": "%"},
      {"measurement": "Percentage of 14C Radioactivity Associated with Erythrocytes in Whole Blood (ETR)", "setting": "[5]; 1.00 h, Median (N=8)", "result": 8.0, "unit": "%"},
      {"measurement": "Percentage of 14C Radioactivity Associated with Erythrocytes in Whole Blood (ETR)", "setting": "[5]; 1.00 h, Min (N=8)", "result": "−3.4", "unit": "%"},
      {"measurement": "Percentage of 14C Radioactivity Associated with Erythrocytes in Whole Blood (ETR)", "setting": "[5]; 1.00 h, individual subjects", "result": "6.87% and 14.1% (2×) and −3.37% and 9.27% and 3.64% and 9.17% and 2.89%"},
      {"measurement": "Percentage of 14C Radioactivity Associated with Erythrocytes in Whole Blood (ETR)", "setting": "[5]; 2.00 h, GM, geometric mean (N=8)", "result": 7.30, "unit": "%"},
      {"measurement": "Percentage of 14C Radioactivity Associated with Erythrocytes in Whole Blood (ETR)", "setting": "[5]; 2.00 h, Max (N=8)", "result": 14, "unit": "%"},
      {"measurement": "Percentage of 14C Radioactivity Associated with Erythrocytes in Whole Blood (ETR)", "setting": "[5]; 2.00 h, Mean (N=8)", "result": 7.85, "unit": "%"},
      {"measurement": "Percentage of 14C Radioactivity Associated with Erythrocytes in Whole Blood (ETR)", "setting": "[5]; 2.00 h, Median (N=8)", "result": 6.7, "unit": "%"},
      {"measurement": "Percentage of 14C Radioactivity Associated with Erythrocytes in Whole Blood (ETR)", "setting": "[5]; 2.00 h, Min (N=8)", "result": 4.1, "unit": "%"},
      {"measurement": "Percentage of 14C Radioactivity Associated with Erythrocytes in Whole Blood (ETR)", "setting": "[5]; 2.00 h, individual subjects", "result": "6.90% and 13.7% and 6.40% and 4.14% and 5.07% and 5.90% and 10.3% and 10.5%"},
      {"measurement": "Percentage of 14C Radioactivity Associated with Erythrocytes in Whole Blood (ETR)", "setting": "[5]; 4.00 h, GM, geometric mean (N=8)", "result": 5.96, "unit": "%"},
      {"measurement": "Percentage of 14C Radioactivity Associated with Erythrocytes in Whole Blood (ETR)", "setting": "[5]; 4.00 h, Max (N=8)", "result": 9.0, "unit": "%"},
      {"measurement": "Percentage of 14C Radioactivity Associated with Erythrocytes in Whole Blood (ETR)", "setting": "[5]; 4.00 h, Mean (N=8)", "result": 6.40, "unit": "%"},
      {"measurement": "Percentage of 14C Radioactivity Associated with Erythrocytes in Whole Blood (ETR)", "setting": "[5]; 4.00 h, Median (N=8)", "result": 6.5, "unit": "%"},
      {"measurement": "Percentage of 14C Radioactivity Associated with Erythrocytes in Whole Blood (ETR)", "setting": "[5]; 4.00 h, Min (N=8)", "result": 2.1, "unit": "%"},
      {"measurement": "Percentage of 14C Radioactivity Associated with Erythrocytes in Whole Blood (ETR)", "setting": "[5]; 4.00 h, individual subjects", "result": "8.27% and 6.45% and 6.26% and 8.96% and 6.74% and 2.05% and 6.55% and 5.88%"},
      {"measurement": "Percentage of 14C Radioactivity Associated with Erythrocytes in Whole Blood (ETR)", "setting": "[5]; 8.00 h, GM, geometric mean (N=8)", "result": 10.9, "unit": "%"},
      {"measurement": "Percentage of 14C Radioactivity Associated with Erythrocytes in Whole Blood (ETR)", "setting": "[5]; 8.00 h, Max (N=8)", "result": 17, "unit": "%"},
      {"measurement": "Percentage of 14C Radioactivity Associated with Erythrocytes in Whole Blood (ETR)", "setting": "[5]; 8.00 h, Mean (N=8)", "result": 12.2, "unit": "%"},
      {"measurement": "Percentage of 14C Radioactivity Associated with Erythrocytes in Whole Blood (ETR)", "setting": "[5]; 8.00 h, Median (N=8)", "result": 13, "unit": "%"},
      {"measurement": "Percentage of 14C Radioactivity Associated with Erythrocytes in Whole Blood (ETR)", "setting": "[5]; 8.00 h, Min (N=8)", "result": 3.4, "unit": "%"},
      {"measurement": "Percentage of 14C Radioactivity Associated with Erythrocytes in Whole Blood (ETR)", "setting": "[5]; 8.00 h, individual subjects", "result": "12.8% and 17.1% and 13.6% and 17.2% and 12.0% and 3.37% and 15.4% and 6.19%"},
      {"measurement": "Percentage of 14C Radioactivity Associated with Erythrocytes in Whole Blood (ETR)", "setting": "[5]; 14.00 h, GM, geometric mean (N=8)", "result": 11.7, "unit": "%"},
      {"measurement": "Percentage of 14C Radioactivity Associated with Erythrocytes in Whole Blood (ETR)", "setting": "[5]; 14.00 h, Max (N=8)", "result": 17, "unit": "%"},
      {"measurement": "Percentage of 14C Radioactivity Associated with Erythrocytes in Whole Blood (ETR)", "setting": "[5]; 14.00 h, Mean (N=8)", "result": 12.3, "unit": "%"},
      {"measurement": "Percentage of 14C Radioactivity Associated with Erythrocytes in Whole Blood (ETR)", "setting": "[5]; 14.00 h, Median (N=8)", "result": 13, "unit": "%"},
      {"measurement": "Percentage of 14C Radioactivity Associated with Erythrocytes in Whole Blood (ETR)", "setting": "[5]; 14.00 h, Min (N=8)", "result": 6.1, "unit": "%"},
      {"measurement": "Percentage of 14C Radioactivity Associated with Erythrocytes in Whole Blood (ETR)", "setting": "[5]; 14.00 h, individual subjects", "result": "6.13% and 17.0% and 12.1% and 7.45% and 12.7% and 14.1% and 14.0% and 14.9%"},
      {"measurement": "Distribution of radioactivity between plasma and red blood cells", "setting": "[5]", "result": "present primarily in plasma and not markedly associated with red blood cells"},
      {"measurement": "concentration at 8 h", "setting": "[6]; po, 175 mg, Plasma Concentrations of XL184 by LC/MS/MS Method, single 175 mg oral dose, Min (N=8)", "result": 267, "unit": "ng/mL"},
      {"measurement": "concentration at 8 h", "setting": "[6]; po, 175 mg, Plasma Concentrations of XL184 by LC/MS/MS Method, single 175 mg oral dose, individual subjects", "result": 532, "unit": "ng/mL"},
      {"measurement": "concentration at 14 h", "setting": "[6]; po, 175 mg, Plasma Concentrations of XL184 by LC/MS/MS Method, 14.00 h, single 175 mg oral dose, individual subjects", "result": 488, "unit": "ng/mL"},
      {"measurement": "concentration at 48 h", "setting": "[6]; [7]", "result": 352, "unit": "ng/mL"},
      {"measurement": "concentration at 120 h", "setting": "[6]; [7]", "result": 156, "unit": "ng/mL"},
      {"measurement": "AUC0-24", "setting": "[6]; male", "result": "14300 ± 2600 (18) h · ng/mL"},
      {"measurement": "AUC0-72", "setting": "[6]; male", "result": "35000 ± 6770 (19) h · ng/mL"},
      {"measurement": "AUC0-inf", "setting": "[6]; male", "result": "68000 ± 6910 (10) h · ng/mL"},
      {"measurement": "AUC0-t", "setting": "[6]; male", "result": "67200 ± 6880 (10) h · ng/mL"},
      {"measurement": "Tmax", "setting": "[6]; male", "result": "1.49 (1.00, 3.00) h"},
      {"measurement": "Tmax", "setting": "[6]; male, Tmax", "result": "~1.49", "unit": "h"},
      {"measurement": "AUC0-t", "setting": "[6]; male, po, 175 mg, AUC0-24", "result": 17600, "unit": "ng·h/mL"},
      {"measurement": "AUC0-t", "setting": "[6]; male, po, 175 mg, AUC0-72", "result": 46800, "unit": "ng·h/mL"},
      {"measurement": "AUC0-inf", "setting": "[6]; male, po, 175 mg, AUC0-inf", "result": 73100, "unit": "ng·h/mL"},
      {"measurement": "AUC0-t", "setting": "[6]; male, po, 175 mg, AUC0-t", "result": 72900, "unit": "ng·h/mL"},
      {"measurement": "Cmax", "setting": "[6]; male, po, 175 mg, Cmax", "result": 1250, "unit": "ng/mL"},
      {"measurement": "half-life", "setting": "[6]; male, po, 175 mg, t1/2", "result": 69, "unit": "h"}
    ]}
  ]
}
